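48-hour exposure; five concentrations; linearly interpolated endpoints. Abbreviation: GI50, concentration required for 50% inhibition of growth. TGI is the concentration that stops growth completely.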
Key:
Assay in all cases: NCI anticancer screen, dose series, 48 h
HCC-2998 colon = test system: HCC-2998 colon
SK-MEL-28 melanoma = test system: SK-MEL-28 melanoma
IGROV1 ovarian = test system: IGROV1 ovarian
OVCAR-4 ovarian = test system: OVCAR-4 ovarian
CAKI-1 renal = test system: CAKI-1 renal
HCT-15 colon = test system: HCT-15 colon
SNB-75 CNS = test system: SNB-75 CNS
SF-539 CNS = test system: SF-539 CNS
K-562 leukemia = test system: K-562 leukemia
DMS 273 small cell lung = test system: DMS 273 small cell lung
CCRF-CEM leukemia = test system: CCRF-CEM leukemia
OVCAR-8 ovarian = test system: OVCAR-8 ovarian
U251 CNS = test system: U251 CNS
HL-60(TB) leukemia = test system: HL-60(TB) leukemia
DMS 114 small cell lung = test system: DMS 114 small cell lung
OVCAR-5 ovarian = test system: OVCAR-5 ovarian
SK-MEL-2 melanoma = test system: SK-MEL-2 melanoma
SF-268 CNS = test system: SF-268 CNS
MOLT-4 leukemia = test system: MOLT-4 leukemia
COLO 205 colon = test system: COLO 205 colon
ACHN renal = test system: ACHN renal
NCI-H522 lung = test system: NCI-H522 lung
DLD-1 colon = test system: DLD-1 colon
SN12C renal = test system: SN12C renal
XF 498 CNS = test system: XF 498 CNS
TK-10 renal = test system: TK-10 renal
HOP-92 NSCLC = test system: HOP-92 NSCLC
SW-620 colon = test system: SW-620 colon
HOP-62 NSCLC = test system: HOP-62 NSCLC
KM20L2 colon = test system: KM20L2 colon
M14 melanoma = test system: M14 melanoma
MALME-3M melanoma = test system: MALME-3M melanoma
SK-MEL-5 melanoma = test system: SK-MEL-5 melanoma
M19-MEL melanoma = test system: M19-MEL melanoma
A549 NSCLC = test system: A549 NSCLC
A498 renal = test system: A498 renal
EKVX NSCLC = test system: EKVX NSCLC
OVCAR-3 ovarian = test system: OVCAR-3 ovarian
NCI-H23 lung = test system: NCI-H23 lung
KM12 colon = test system: KM12 colon
SNB-19 CNS = test system: SNB-19 CNS
HCT-116 colon = test system: HCT-116 colon
UACC-62 melanoma = test system: UACC-62 melanoma
SR leukemia = test system: SR leukemia
NCI-H460 lung = test system: NCI-H460 lung
SK-OV-3 ovarian = test system: SK-OV-3 ovarian
HT29 colon = test system: HT29 colon
RPMI-8226 leukemia = test system: RPMI-8226 leukemia
UACC-257 melanoma = test system: UACC-257 melanoma
UO-31 renal = test system: UO-31 renal
SF-295 CNS = test system: SF-295 CNS
LXFL 529 NSCLC = test system: LXFL 529 NSCLC
786-0 renal = test system: 786-0 renal
LOX IMVI melanoma = test system: LOX IMVI melanoma
RXF 393 renal = test system: RXF 393 renal

How did the TGI (HCC-2998 colon) turn out when `CC(C)OP(=O)(OC(C)C)/C(F)=N/Nc1ccc([N+](=O)[O-])cc1` was run?
The TGI was > 100 µM.

What about the TGI (SK-MEL-28 melanoma) of the same compound?
Its TGI is > 100 µM.

And the TGI (IGROV1 ovarian)?
Its TGI is > 100 µM.

What about the TGI (OVCAR-4 ovarian) of the same compound?
Its TGI is > 100 µM.

What about the TGI (CAKI-1 renal) of the same compound?
Its TGI is > 100 µM.

What about the TGI (HCT-15 colon) of the same compound?
Its TGI is > 100 µM.

And the TGI (SNB-75 CNS)?
Its TGI is > 100 µM.

And the TGI (SF-539 CNS)?
Its TGI is > 100 µM.

What about the TGI (K-562 leukemia) of the same compound?
The TGI was > 100 µM.

And the TGI (DMS 273 small cell lung)?
Its TGI is > 100 µM.

What about the TGI (CCRF-CEM leukemia) of the same compound?
The TGI was > 100 µM.

And the TGI (OVCAR-8 ovarian)?
Its TGI is > 100 µM.

What about the TGI (U251 CNS) of the same compound?
The TGI was > 100 µM.

And the TGI (HL-60(TB) leukemia)?
The TGI was > 100 µM.

And the TGI (DMS 114 small cell lung)?
The TGI was > 100 µM.

And the TGI (OVCAR-5 ovarian)?
The TGI was > 100 µM.

What about the TGI (SK-MEL-2 melanoma) of the same compound?
The TGI was > 100 µM.

And the TGI (SF-268 CNS)?
The TGI was > 100 µM.

What about the TGI (MOLT-4 leukemia) of the same compound?
Its TGI is > 100 µM.

And the TGI (COLO 205 colon)?
The TGI was > 100 µM.

What about the TGI (ACHN renal) of the same compound?
Its TGI is > 100 µM.

And the TGI (NCI-H522 lung)?
Its TGI is > 100 µM.

What about the TGI (DLD-1 colon) of the same compound?
The TGI was > 100 µM.

What about the TGI (SN12C renal) of the same compound?
The TGI was > 100 µM.

And the TGI (XF 498 CNS)?
Its TGI is > 100 µM.

What about the TGI (TK-10 renal) of the same compound?
The TGI was > 100 µM.

And the TGI (HOP-92 NSCLC)?
The TGI was > 100 µM.

What about the TGI (SW-620 colon) of the same compound?
The TGI was > 100 µM.

What about the TGI (HOP-62 NSCLC) of the same compound?
Its TGI is > 100 µM.

What about the TGI (KM20L2 colon) of the same compound?
The TGI was > 100 µM.

What about the TGI (M14 melanoma) of the same compound?
The TGI was > 100 µM.

What about the TGI (MALME-3M melanoma) of the same compound?
Its TGI is > 100 µM.

What about the TGI (SK-MEL-5 melanoma) of the same compound?
Its TGI is > 100 µM.

What about the TGI (M19-MEL melanoma) of the same compound?
Its TGI is > 100 µM.

What about the TGI (A549 NSCLC) of the same compound?
Its TGI is > 100 µM.

And the TGI (A498 renal)?
Its TGI is > 100 µM.

And the TGI (EKVX NSCLC)?
The TGI was > 100 µM.

What about the TGI (OVCAR-3 ovarian) of the same compound?
The TGI was > 100 µM.

And the TGI (NCI-H23 lung)?
Its TGI is > 100 µM.

What about the TGI (KM12 colon) of the same compound?
The TGI was > 100 µM.

And the TGI (SNB-19 CNS)?
Its TGI is > 100 µM.

And the TGI (HCT-116 colon)?
Its TGI is > 100 µM.

And the TGI (UACC-62 melanoma)?
Its TGI is > 100 µM.

And the TGI (SR leukemia)?
Its TGI is > 100 µM.

And the TGI (NCI-H460 lung)?
The TGI was > 100 µM.

And the TGI (SK-OV-3 ovarian)?
The TGI was > 100 µM.

What about the TGI (HT29 colon) of the same compound?
The TGI was > 100 µM.

What about the TGI (RPMI-8226 leukemia) of the same compound?
Its TGI is > 100 µM.

What about the TGI (UACC-257 melanoma) of the same compound?
Its TGI is > 100 µM.

And the TGI (UO-31 renal)?
Its TGI is > 100 µM.

And the TGI (SF-295 CNS)?
Its TGI is > 100 µM.

And the TGI (LXFL 529 NSCLC)?
Its TGI is > 100 µM.

What does the source list for `O=C([CH-]C(=O)C(F)(F)F)c1ccccc1.O=C([CH-]C(=O)C(F)(F)F)c1ccccc1.[O]=[U+2]=[O]`?
GI50 (HCC-2998 colon): 14.4 µM; TGI (HCC-2998 colon): 61.7 µM; GI50 (SK-MEL-28 melanoma): 9.2 µM; TGI (SK-MEL-28 melanoma): 79.5 µM; GI50 (IGROV1 ovarian): 16.5 µM; TGI (IGROV1 ovarian): > 100 µM; GI50 (OVCAR-4 ovarian): 10.4 µM; TGI (OVCAR-4 ovarian): > 100 µM; GI50 (CAKI-1 renal): 39 µM; TGI (CAKI-1 renal): > 100 µM; GI50 (HCT-15 colon): 7.27 µM; TGI (HCT-15 colon): > 100 µM; GI50 (SNB-75 CNS): 28.8 µM; TGI (SNB-75 CNS): 85.8 µM; GI50 (SF-539 CNS): 4.13 µM; TGI (SF-539 CNS): > 100 µM; GI50 (K-562 leukemia): 13.1 µM; TGI (K-562 leukemia): > 100 µM; GI50 (DMS 273 small cell lung): 7.38 µM; TGI (DMS 273 small cell lung): > 100 µM; GI50 (CCRF-CEM leukemia): 11.4 µM; TGI (CCRF-CEM leukemia): > 100 µM; GI50 (OVCAR-8 ovarian): 14.1 µM; TGI (OVCAR-8 ovarian): 93.6 µM; GI50 (U251 CNS): 5.61 µM; TGI (U251 CNS): > 100 µM; GI50 (HL-60(TB) leukemia): 15.8 µM; TGI (HL-60(TB) leukemia): 78.4 µM; GI50 (OVCAR-5 ovarian): 64.1 µM; TGI (OVCAR-5 ovarian): > 100 µM; GI50 (SK-MEL-2 melanoma): 28 µM; TGI (SK-MEL-2 melanoma): > 100 µM; GI50 (SF-268 CNS): 4.53 µM; TGI (SF-268 CNS): > 100 µM; GI50 (MOLT-4 leukemia): 19.4 µM; TGI (MOLT-4 leukemia): > 100 µM; GI50 (COLO 205 colon): 34.5 µM; TGI (COLO 205 colon): > 100 µM; GI50 (ACHN renal): 13.6 µM; TGI (ACHN renal): 80.9 µM; GI50 (NCI-H522 lung): 4.11 µM; TGI (NCI-H522 lung): > 100 µM; GI50 (786-0 renal): 21.7 µM; TGI (786-0 renal): 89.4 µM; GI50 (DLD-1 colon): 7.75 µM; TGI (DLD-1 colon): > 100 µM; GI50 (SN12C renal): 9.1 µM; TGI (SN12C renal): > 100 µM; GI50 (XF 498 CNS): 23.8 µM; TGI (XF 498 CNS): 69.9 µM; GI50 (TK-10 renal): 20.4 µM; TGI (TK-10 renal): 64.1 µM; GI50 (HOP-92 NSCLC): 30.9 µM; TGI (HOP-92 NSCLC): 95.6 µM; GI50 (SW-620 colon): 27.9 µM; TGI (SW-620 colon): > 100 µM; GI50 (HOP-62 NSCLC): 15.1 µM; TGI (HOP-62 NSCLC): 53.9 µM; GI50 (KM20L2 colon): 19.9 µM; TGI (KM20L2 colon): > 100 µM; GI50 (M14 melanoma): 19.1 µM; TGI (M14 melanoma): 88.9 µM; GI50 (MALME-3M melanoma): 18.6 µM; TGI (MALME-3M melanoma): 47.7 µM; GI50 (SK-MEL-5 melanoma): 17.8 µM; TGI (SK-MEL-5 melanoma): > 100 µM; GI50 (M19-MEL melanoma): 16.6 µM; TGI (M19-MEL melanoma): > 100 µM; GI50 (A549 NSCLC): 27.4 µM; TGI (A549 NSCLC): > 100 µM; GI50 (A498 renal): 24.6 µM; TGI (A498 renal): 74.4 µM; GI50 (EKVX NSCLC): 22.3 µM; TGI (EKVX NSCLC): 72.9 µM; GI50 (OVCAR-3 ovarian): 18 µM; TGI (OVCAR-3 ovarian): 56.7 µM; GI50 (NCI-H23 lung): 4.71 µM; TGI (NCI-H23 lung): 67.7 µM; GI50 (KM12 colon): 26 µM; TGI (KM12 colon): 92.6 µM; GI50 (SNB-19 CNS): 4.62 µM; TGI (SNB-19 CNS): > 100 µM; GI50 (UACC-62 melanoma): 12.2 µM; TGI (UACC-62 melanoma): 87.9 µM; GI50 (NCI-H460 lung): 12.6 µM; TGI (NCI-H460 lung): 90.6 µM; GI50 (SK-OV-3 ovarian): 51.4 µM; TGI (SK-OV-3 ovarian): > 100 µM; GI50 (HT29 colon): 28.3 µM; TGI (HT29 colon): 68.2 µM; GI50 (RPMI-8226 leukemia): 8.51 µM; TGI (RPMI-8226 leukemia): > 100 µM; GI50 (UACC-257 melanoma): 27.3 µM; TGI (UACC-257 melanoma): > 100 µM; GI50 (UO-31 renal): 5.4 µM; TGI (UO-31 renal): > 100 µM; GI50 (SF-295 CNS): 20.8 µM; TGI (SF-295 CNS): 86.5 µM; GI50 (LXFL 529 NSCLC): 7.33 µM; TGI (LXFL 529 NSCLC): > 100 µM; GI50 (LOX IMVI melanoma): 13 µM; TGI (LOX IMVI melanoma): > 100 µM; GI50 (RXF 393 renal): 16.9 µM; TGI (RXF 393 renal): 45.4 µM
